Measurements: patent US8952024B2, “Herbicidal pyrimidone derivatives” (E I du Pont de Nemours and Company, priority 2009, dated 2015)

Key:
Format in all cases: in vivo
[1] = system: wheat (Triticum aestivum); assay: Test A pre-/postemergence plant response
Description: (§1) Seeds of barnyardgrass (Echinochloa crus-galli), large crabgrass (Digitaria sanguinalis), giant foxtail (Setaria faberii), morningglory (Ipomoea spp.), pigweed (Amaranthus retroflexus), velvetleaf (Abutilon theophrasti), wheat (Triticum aestivum) and corn (Zea mays) were planted into a blend of loam soil and sand and treated preemergence with a directed soil spray using test chemicals formulated in a non-phytotoxic solvent mixture which included a surfactant. At the same time these species were also treated with postemergence applications of test compounds formulated in the same manner.
(§2) Plants ranged in height from two to ten cm and were in the one- to two-leaf stage for the postemergence treatment. Treated plants and untreated controls were maintained in a greenhouse for approximately ten days, after which time all treated plants were compared to untreated controls and visually evaluated for injury. Plant response ratings, summarized in Table A, are based on a 0 to 100 scale where 0 is no effect and 100 is complete control. A dash (-) response means no test result.

[2] = system: morningglory (Ipomoea spp.); assay: Test A pre-/postemergence plant response
Description: as §1, §2

[3] = system: pigweed (Amaranthus retroflexus); assay: Test A pre-/postemergence plant response
Description: as §1, §2

[4] = system: velvetleaf (Abutilon theophrasti); assay: Test A pre-/postemergence plant response
Description: as §1, §2

[5] = system: large crabgrass (Digitaria sanguinalis); assay: Test A pre-/postemergence plant response
Description: as §1, §2

corn (Zea mays) = assay: Test A pre-/postemergence plant response
Description: as §1, §2

[6] = system: giant foxtail (Setaria faberii); assay: Test A pre-/postemergence plant response
Description: as §1, §2

[7] = system: barnyardgrass (Echinochloa crus-galli); assay: Test A pre-/postemergence plant response
Description: as §1, §2

[8] = system: umbrella sedge (Cyperus difformis); assay: Test B flooded paddy test; details: for Plant response rating, Flood, Sedge, Umbrella: 250 g ai/ha, flooded paddy test, visual rating on 0 to 100 scale (0 no effect, 100 complete control) after 13 to 15 days; for Plant response rating, Sedge, Umbrella: Flood (flooded paddy test), 13 to 15 days
Description: (§3) Plant species in the flooded paddy test consisted of rice (Oryza sativa), umbrella sedge (Cyperus difformis), ducksalad (Heteranthera limosa) and barnyardgrass (Echinochloa crus-galli) grown to the 2-leaf stage for testing. At the time of treatment, test pots were flooded with water to 3 cm above the soil surface, treated by application of test compounds directly to the paddy water, and then maintained at that water depth for the duration of the test.
(§4) Treated plants and controls were maintained in a greenhouse for 13 to 15 days, after which time all treated plants were visually evaluated and compared to controls. Plant response ratings, summarized in Table B, are based on a scale of 0 to 100 where 0 is no effect and 100 is complete control. A dash (-) response means no test result.

[9] = system: ducksalad (Heteranthera limosa); assay: Test B flooded paddy test; details: for Plant response rating, Flood, Ducksalad: 250 g ai/ha, flooded paddy test, visual rating on 0 to 100 scale (0 no effect, 100 complete control) after 13 to 15 days; for Plant response rating, Ducksalad: Flood (flooded paddy test), 13 to 15 days
Description: as §3, §4

rice (Oryza sativa) = assay: Test B flooded paddy test; details: for Plant response rating, Flood, Rice: 250 g ai/ha, flooded paddy test, visual rating on 0 to 100 scale (0 no effect, 100 complete control) after 13 to 15 days; for Plant response rating, Rice: Flood (flooded paddy test), 13 to 15 days
Description: as §3, §4

[10] = system: barnyardgrass (Echinochloa crus-galli); assay: Test B flooded paddy test; details: for Plant response rating, Flood, Barnyardgrass: 250 g ai/ha, flooded paddy test, visual rating on 0 to 100 scale (0 no effect, 100 complete control) after 13 to 15 days; for Plant response rating, Barnyardgrass: Flood (flooded paddy test), 13 to 15 days
Description: as §3, §4

[11] = Postemergence, 125 g ai/ha, visual injury, 0 to 100 scale (0 no effect, 100 complete control), approx. ten days
[12] = Postemergence, 500 g ai/ha, 0 to 100 scale, 0 = no effect, 100 = complete control, approx. ten days
[13] = Preemergence, 125 g ai/ha, 0 to 100 scale, 0 = no effect, 100 = complete control
[14] = Preemergence, 500 g ai/ha, visual injury, 0 to 100 scale (0 no effect, 100 complete control), approx. ten days
[15] = 62 g ai/ha, scale 0 to 100, 0 is no effect, 100 is complete control
[16] = Postemergence, 125 g ai/ha, 0 to 100 scale where 0 is no effect and 100 is complete control
[17] = 62 g ai/ha, scale of 0 to 100 where 0 is no effect and 100 is complete control
[18] = Postemergence, 500 g ai/ha, visual injury, 0 to 100 scale (0 no effect, 100 complete control), approx. ten days
[19] = Preemergence, 500 g ai/ha, 0 to 100 scale, 0 = no effect, 100 = complete control
[20] = 125 g ai/ha, scale 0 to 100, 0 is no effect, 100 is complete control
[21] = Flood, 31 g ai/ha, scale 0 to 100 (0 no effect, 100 complete control)
[22] = 31 g ai/ha, scale of 0 to 100 where 0 is no effect and 100 is complete control

Cc1ccc(-n2c(-c3ccccc3)ncc(C(=O)C3=C(O)CCCC3=O)c2=O)cc1C [Compound 32]
20: Plant response rating, Wheat [1, 14] | Plant response rating, Velvetleaf [4, 13] | Plant response rating, Crabgrass, Large [5, 13] | Barnyardgrass plant response rating [7, 11]
30: Plant response rating, Wheat [1, 12] | Plant response rating, Pigweed [3, 13] | Foxtail, Giant plant response rating [6, 11] | Plant response rating, Flood, Rice (rice (Oryza sativa))
40: Plant response rating, Flood, Barnyardgrass [10]
75: Plant response rating, Sedge, Umbrella [8, 15] | Plant response rating, Ducksalad [9, 15]
80: Plant response rating, Morningglory [2, 14] | Plant response rating, Barnyardgrass [7, 12]
90: Plant response rating, Crabgrass, Large [5, 12] | Plant response rating, Crabgrass, Large [5, 14] | Plant response rating, Foxtail, Giant [6, 12] | Plant response rating, Foxtail, Giant [6, 14] | Plant response rating, Barnyardgrass [7, 14] | Plant response rating, Flood, Sedge, Umbrella [8]
10: Plant response rating, Corn (corn (Zea mays); [12]) | Plant response rating, Foxtail, Giant [6, 13] | Plant response rating, Barnyardgrass [10, 15]
95: Plant response rating, Flood, Ducksalad [9]
100: Plant response rating, Morningglory [2, 12] | Pigweed plant response rating [3, 11] | Plant response rating, Pigweed [3, 12] | Plant response rating, Pigweed [3, 14] | Velvetleaf plant response rating [4, 11] | Plant response rating, Velvetleaf [4, 12]
50: Morningglory plant response rating [2, 11] | Crabgrass, Large plant response rating [5, 11]
70: Plant response rating, Velvetleaf [4, 14]
0: Wheat plant response rating [1, 11] | Plant response rating, Wheat [1, 13] | Plant response rating, Morningglory [2, 13] | Corn plant response rating (corn (Zea mays); [11]) | Plant response rating, Corn (corn (Zea mays); [13]) | Plant response rating, Corn (corn (Zea mays); [14]) | Plant response rating, Barnyardgrass [7, 13] | Plant response rating, Rice (rice (Oryza sativa); [15])

CCCn1c(-c2ccn(C)n2)ncc(C(=O)C2=C(O)CCCC2=O)c1=O [Compound 135]
90: Plant response rating, Morningglory [2, 12] | Plant response rating, Pigweed [3, 12]
100: Plant response rating, Velvetleaf [4, 16] | Plant response rating, Velvetleaf [4, 12]
80: Plant response rating, Pigweed [3, 16] | Plant response rating, Pigweed [3, 14]
50: Plant response rating, Morningglory [2, 14]
30: Plant response rating, Barnyardgrass [7, 12] | Plant response rating, Ducksalad [9, 17]
40: Plant response rating, Pigweed [3, 13] | Plant response rating, Velvetleaf [4, 13] | Plant response rating, Crabgrass, Large [5, 16] | Plant response rating, Crabgrass, Large [5, 14] | Plant response rating, Flood, Ducksalad [9]
70: Plant response rating, Morningglory [2, 16] | Plant response rating, Velvetleaf [4, 14] | Plant response rating, Crabgrass, Large [5, 12]
20: Plant response rating, Morningglory [2, 13]
0: Plant response rating, Wheat [1, 16] | Plant response rating, Wheat [1, 12] | Plant response rating, Wheat [1, 13] | Plant response rating, Wheat [1, 14] | Plant response rating, Crabgrass, Large [5, 13] | Plant response rating, Corn (corn (Zea mays); [16]) | Plant response rating, Corn (corn (Zea mays); [12]) | Plant response rating, Corn (corn (Zea mays); [13]) | Plant response rating, Corn (corn (Zea mays); [14]) | Plant response rating, Foxtail, Giant [6, 16] | Plant response rating, Foxtail, Giant [6, 12] | Plant response rating, Foxtail, Giant [6, 13] | Plant response rating, Foxtail, Giant [6, 14] | Plant response rating, Barnyardgrass [7, 13] | Plant response rating, Barnyardgrass [7, 14] | Plant response rating, Flood, Sedge, Umbrella [8] | Plant response rating, Sedge, Umbrella [8, 17] | Plant response rating, Flood, Rice (rice (Oryza sativa)) | Plant response rating, Rice (rice (Oryza sativa); [17]) | Plant response rating, Flood, Barnyardgrass [10] | Plant response rating, Barnyardgrass [10, 17]
10: Plant response rating, Barnyardgrass [7, 16]

O=C1CCCC(O)=C1C(=O)c1cnc(-c2ccc(F)c(F)c2)n(C2CCCCC2)c1=O [Compound 198]
20: Plant response rating, Wheat [1, 19] | Plant response rating, Corn (corn (Zea mays); [19]) | Plant response rating, Sedge, Umbrella [8, 17] | Sedge, Umbrella plant response rating [8, 21] | Plant response rating, Rice (rice (Oryza sativa); [17]) | Plant response rating, Rice (rice (Oryza sativa); [20])
50: Plant response rating, Barnyardgrass [7, 19] | Plant response rating, Ducksalad [9, 17] | Plant response rating, Flood, Rice (rice (Oryza sativa))
100: Plant response rating, Morningglory [2, 16] | Morningglory plant response rating [2, 18] | Pigweed plant response rating [3, 18] | Plant response rating, Pigweed [3, 19] | Plant response rating, Velvetleaf [4, 16] | Velvetleaf plant response rating [4, 18] | Crabgrass, Large plant response rating [5, 18] | Barnyardgrass plant response rating [7, 18]
35: Plant response rating, Flood, Barnyardgrass [10]
85: Plant response rating, Ducksalad [9, 20]
10: Plant response rating, Pigweed [3, 13] | Plant response rating, Crabgrass, Large [5, 13]
70: Plant response rating, Crabgrass, Large [5, 16] | Plant response rating, Foxtail, Giant [6, 13] | Plant response rating, Foxtail, Giant [6, 19] | Plant response rating, Barnyardgrass [7, 16]
15: Rice plant response rating (rice (Oryza sativa); [21])
90: Plant response rating, Pigweed [3, 16] | Plant response rating, Crabgrass, Large [5, 19] | Foxtail, Giant plant response rating [6, 18]
40: Ducksalad plant response rating [9, 21]
60: Plant response rating, Foxtail, Giant [6, 16]
95: Plant response rating, Flood, Ducksalad [9]
0: Plant response rating, Wheat [1, 16] | Wheat plant response rating [1, 18] | Plant response rating, Wheat [1, 13] | Plant response rating, Morningglory [2, 13] | Plant response rating, Velvetleaf [4, 13] | Plant response rating, Corn (corn (Zea mays); [16]) | Plant response rating, Corn (corn (Zea mays); [13]) | Plant response rating, Barnyardgrass [7, 13] | Plant response rating, Barnyardgrass [10, 17] | Barnyardgrass plant response rating [10, 21]
30: Plant response rating, Morningglory [2, 19] | Corn plant response rating (corn (Zea mays); [18]) | Plant response rating, Barnyardgrass [10, 20]
80: Plant response rating, Velvetleaf [4, 19] | Plant response rating, Flood, Sedge, Umbrella [8] | Plant response rating, Sedge, Umbrella [8, 20]

CC(C)c1ncc(C(=O)C2=C(O)CCCC2=O)c(=O)n1-c1ccccc1 [Compound 60]
85: Plant response rating, Flood, Sedge, Umbrella [8]
60: Morningglory plant response rating [2, 11] | Plant response rating, Foxtail, Giant [6, 13] | Barnyardgrass plant response rating [7, 11] | Plant response rating, Barnyardgrass [7, 13] | Plant response rating, Flood, Ducksalad [9]
50: Plant response rating, Wheat [1, 12]
15: Plant response rating, Flood, Rice (rice (Oryza sativa))
100: Pigweed plant response rating [3, 11] | Plant response rating, Pigweed [3, 12] | Plant response rating, Pigweed [3, 14] | Velvetleaf plant response rating [4, 11] | Plant response rating, Velvetleaf [4, 12] | Plant response rating, Velvetleaf [4, 14] | Plant response rating, Crabgrass, Large [5, 12] | Plant response rating, Crabgrass, Large [5, 14]
30: Plant response rating, Sedge, Umbrella [8, 17] | Plant response rating, Barnyardgrass [10, 20]
0: Plant response rating, Wheat [1, 13] | Corn plant response rating (corn (Zea mays); [11]) | Plant response rating, Corn (corn (Zea mays); [13]) | Plant response rating, Sedge, Umbrella [8, 22] | Plant response rating, Ducksalad [9, 22] | Plant response rating, Ducksalad [9, 17] | Plant response rating, Rice (rice (Oryza sativa); [22]) | Plant response rating, Rice (rice (Oryza sativa); [17]) | Plant response rating, Rice (rice (Oryza sativa); [20]) | Plant response rating, Barnyardgrass [10, 22] | Plant response rating, Barnyardgrass [10, 17]
90: Plant response rating, Morningglory [2, 12] | Plant response rating, Pigweed [3, 13] | Crabgrass, Large plant response rating [5, 11] | Plant response rating, Crabgrass, Large [5, 13] | Plant response rating, Foxtail, Giant [6, 12] | Plant response rating, Foxtail, Giant [6, 14] | Plant response rating, Barnyardgrass [7, 12] | Plant response rating, Barnyardgrass [7, 14]
40: Plant response rating, Wheat [1, 14] | Plant response rating, Ducksalad [9, 20] | Plant response rating, Flood, Barnyardgrass [10]
80: Plant response rating, Morningglory [2, 14] | Plant response rating, Velvetleaf [4, 13] | Foxtail, Giant plant response rating [6, 11]
10: Plant response rating, Corn (corn (Zea mays); [12]) | Plant response rating, Corn (corn (Zea mays); [14])
75: Plant response rating, Sedge, Umbrella [8, 20]
20: Wheat plant response rating [1, 11]
